Values of other authors, collected in patent US20260191865A1, “CANCER THERAPY WITH CAPIVASERTIB AND FULVESTRANT” (AstraZeneca AB, priority 2022, published 2026).
Like-named read-outs stand apart in the source and are kept apart here.

Test system: ER-positive, HER2-negative advanced breast cancer

SMILES: NC1(C(=O)N[C@@H](CCO)c2ccc(Cl)cc2)CCN(c2ncnc3[nH]ccc23)CC1 [capivasertib, (S)-4-amino-N-(1-(4-chlorophenyl)-3-hydroxypropyl)-1-(7H-pyrrolo[2,3-d]pyrimidin-4-yl)piperidine-4-carboxamide]
- PFS and overall survival benefit (NGS-identified pathway non-altered subgroup): no such benefit
- progression-free survival (PFS) (capivasertib added to fulvestrant, postmenopausal women, AI-resistant, no previous CDK4/6 inhibitor): significant improvement
- PFS and overall survival benefit (expanded (NGS) PI3K/AKT/PTEN pathway-altered subgroup, updated analysis): significant PFS and overall survival benefit
- benefit by original pathway status (secondary endpoint subgroup analysis) (original pathway-altered and original pathway non-altered subgroups, capivasertib added to fulvestrant): conferred benefit
